Measurements: PubChem BioAssay (NCI)
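Compound exposure: 48 hours, 5 concentrations, 96-well plates. GI50 is the concentration that inhibits growth by half. TGI is the concentration that stops growth completely.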

Columns and labels:
Assay in all cases: NCI anticancer screen, dose series, 48 h
[1] = tested on: SF-539 CNS
[2] = tested on: 786-0 renal
[3] = tested on: OVCAR-4 ovarian
[4] = tested on: MDA-MB-435
[5] = tested on: RPMI-8226 leukemia
[6] = tested on: OVCAR-5 ovarian
[7] = tested on: SF-268 CNS
[8] = tested on: HOP-92 NSCLC
[9] = tested on: UACC-257 melanoma
[10] = tested on: NCI-H460 lung
[11] = tested on: NCI-H226 lung
[12] = tested on: BT-549 breast
[13] = tested on: OVCAR-8 ovarian
[14] = tested on: EKVX NSCLC
[15] = tested on: OVCAR-3 ovarian
[16] = tested on: DU-145 prostate
[17] = tested on: MDA-MB-468 breast
[18] = tested on: KM12 colon
[19] = tested on: NCI-H522 lung
[20] = tested on: UO-31 renal
[21] = tested on: HCC-2998 colon
[22] = tested on: SR leukemia
[23] = tested on: HL-60(TB) leukemia
[24] = tested on: ACHN renal
[25] = tested on: MALME-3M melanoma
[26] = tested on: SK-OV-3 ovarian
[27] = tested on: SK-MEL-28 melanoma
[28] = tested on: U251 CNS
[29] = tested on: SW-620 colon
[30] = tested on: T-47D breast
[31] = tested on: HS 578T breast
[32] = tested on: SF-295 CNS
[33] = tested on: CAKI-1 renal
[34] = tested on: HT29 colon
[35] = tested on: SNB-19 CNS
[36] = tested on: HCT-116 colon
[37] = tested on: TK-10 renal
[38] = tested on: SK-MEL-5 melanoma
[39] = tested on: MCF7 breast
[40] = tested on: LOX IMVI melanoma
[41] = tested on: RXF 393 renal
[42] = tested on: MDA-MB-231 breast
[43] = tested on: A549 NSCLC
[44] = tested on: SNB-75 CNS
[45] = tested on: NCI/ADR-RES ovarian
[46] = tested on: MOLT-4 leukemia
[47] = tested on: UACC-62 melanoma
[48] = tested on: HOP-62 NSCLC
[49] = tested on: NCI-H23 lung
[50] = tested on: COLO 205 colon
[51] = tested on: K-562 leukemia
[52] = tested on: M14 melanoma
[53] = tested on: HCT-15 colon
[54] = tested on: IGROV1 ovarian
[55] = tested on: PC-3 prostate
[56] = tested on: SN12C renal
[57] = tested on: CCRF-CEM leukemia

Cc1cc(C(NC(=O)CCCCCNc2cccc3c2C(=O)N(C2CCC(=O)CC2=O)C3=O)c2cccc(N(C)C)c2)c(O)c2ncccc12 (centres undefined)
GI50 [1]: 1830 nM | TGI [1]: 30800 nM | GI50 [2]: 1360 nM | TGI [2]: > 58500 nM | GI50 [3]: 1480 nM | TGI [3]: > 58500 nM | GI50 [4]: 2220 nM | TGI [4]: > 58500 nM | GI50 [5]: 1580 nM | TGI [5]: > 58500 nM | GI50 [6]: 1900 nM | TGI [6]: > 58500 nM | GI50 [7]: 1410 nM | TGI [7]: > 58500 nM | GI50 [8]: 36.5 nM | TGI [8]: 524 nM | GI50 [9]: 2450 nM | TGI [9]: > 58500 nM | GI50 [10]: 1140 nM | TGI [10]: > 58500 nM | GI50 [11]: 782 nM | TGI [11]: > 15800 nM | GI50 [12]: 85.1 nM | TGI [12]: 930 nM | GI50 [13]: 555 nM | TGI [13]: > 58500 nM | GI50 [14]: 1360 nM | TGI [14]: > 58500 nM | GI50 [15]: 1230 nM | TGI [15]: > 58500 nM | GI50 [16]: 3030 nM | TGI [16]: > 58500 nM | GI50 [17]: 27.8 nM | TGI [17]: 462 nM | GI50 [18]: 1730 nM | TGI [18]: > 58500 nM | GI50 [19]: 1800 nM | TGI [19]: > 58500 nM | GI50 [20]: 745 nM | TGI [20]: > 25400 nM | GI50 [21]: 941 nM | TGI [21]: 3760 nM | GI50 [22]: 922 nM | TGI [22]: > 58500 nM | GI50 [23]: 19.9 nM | TGI [23]: 1670 nM | GI50 [24]: 1920 nM | TGI [24]: > 58500 nM | GI50 [25]: 97.5 nM | TGI [25]: 957 nM | GI50 [26]: 1530 nM | TGI [26]: 5020 nM | GI50 [27]: 2060 nM | TGI [27]: > 58500 nM | GI50 [28]: 1390 nM | TGI [28]: > 58500 nM | GI50 [29]: 564 nM | TGI [29]: > 58500 nM | GI50 [30]: 739 nM | TGI [30]: > 58500 nM | GI50 [31]: 482 nM | TGI [31]: > 58500 nM | GI50 [32]: 1530 nM | TGI [32]: > 58500 nM | GI50 [33]: 1140 nM | TGI [33]: > 58500 nM | GI50 [34]: 2360 nM | TGI [34]: > 58500 nM | GI50 [35]: 1560 nM | TGI [35]: > 58500 nM | GI50 [36]: 932 nM | TGI [36]: > 58500 nM | GI50 [37]: 2670 nM | TGI [37]: > 58500 nM | GI50 [38]: 822 nM | TGI [38]: 1830 nM | GI50 [39]: 982 nM | TGI [39]: > 58500 nM | GI50 [40]: 1200 nM | TGI [40]: > 16100 nM | GI50 [41]: 1550 nM | TGI [41]: > 58500 nM | GI50 [42]: 22.2 nM | TGI [42]: 136 nM | GI50 [43]: 2120 nM | TGI [43]: > 58500 nM | GI50 [44]: 766 nM | TGI [44]: > 58500 nM | GI50 [45]: 5440 nM | TGI [45]: > 58500 nM | GI50 [46]: 34.6 nM | TGI [46]: > 58500 nM | GI50 [47]: 1330 nM | TGI [47]: 4630 nM | GI50 [48]: 547 nM | TGI [48]: > 12600 nM | GI50 [49]: 1540 nM | TGI [49]: > 58500 nM | GI50 [50]: 1080 nM | TGI [50]: > 58500 nM | GI50 [51]: 824 nM | TGI [51]: > 58500 nM | GI50 [52]: 585 nM | TGI [52]: 3780 nM | GI50 [53]: 910 nM | TGI [53]: > 58500 nM | GI50 [54]: 686 nM | TGI [54]: 6170 nM | GI50 [55]: 103 nM | TGI [55]: > 58500 nM | GI50 [56]: 1210 nM | TGI [56]: > 58500 nM | GI50 [57]: 26.8 nM | TGI [57]: 1360 nM
